Reference: patent US5334593A, “Anxiolytic drugs” (Yamasa Shoyu Kabushiki Kaisha, priority 1990, dated 1994)

Columns and labels:
male Wistar rats = assay: Anti-conflict activity (Geller type conflict test); assay type: in vivo, rat (Wistar); conditions: for number of lever pressing during the alarm periods / number of lever pressing during the safety periods: one hour, vs control; for minimal effective dose: Rattus norvegicus, oral, from results of Test Example 1, read-out: Minimum Effective Dose for Anti-Conflict Activity [B]
Protocol: The activities of the test compounds were evaluated by the Geller type conflict test which is frequently employed as a preclinical evaluation method of an anxiolytic drug [see Psychophamacologia, 1, 482-492 (1960 )]. The method is described below.
1-Amino--5--chlorouracil (ACU) , 1-amino-5-bromouracil (ABU) and 1-amino-5-fluorouracil (AFU) were used as the test compounds. These compounds were respectively suspended in distilled water containing 0 . 5% carboxymethyl cellulose (CMC) to obtain suspensions suitable for oral administration. In addition, diazepam (DZP) serving as a positive control compound was also prepared as a suspension suitable for oral administration in the same manner.
A skinner box (manufactured by OHARA & Co. , Ltd. ) used for the test was equipped with a lever, a light and a buzzer, and its floor was a grid made of stainless steel. When the lever was pressed, pellets (food) were supplied from a feeder, and, if necessary, an electric shock was given from the floor.
Male Wistar rats were deprived of food during the night to restrain an increase in the body weight, and a training of the animals was started. After the number of lever pressing performed by the rats reached the predetermined level by following a reinforcement schedule in which food pellets were supplied once every ten times of lever pressing (FR-10) , two periods, that is, a 7-minute safety period and a 3-minute alarm period were alternately incorporated in the schedule - During the alarm period, the rats were signaled by the light and buzzer, and further by an electric shock given from the floor every time they were supplied with food pellets. Those rats which were trained to press the lever 19 times or less during the alarm period were used for the measurement. Immediately after a suspension of a test compound prepared in the above-described manner was administered orally to the rats, they were placed in the skinner box, and the numbers of lever pressing were counted over a period of one hour. The numbers thus obtained were compared with those obtained by the control wherein distilled water containing 0.5% CMC and no test compound was orally administered to the rats and the number of lever pressing was counted for one hour. The significant difference was ascertained by the Wilcoxoh's signed rank test. The results are shown in FIG. 1A, FIG. 1B, FIG. 1C, FIG. 2A and FIG. 2B.
To the rats used for the above test, no drugs were administered for one week, and then they were repeatedly used for the same test.
Further, the minimum effective dose (B) for anti-conflict activity of each of the above-described test compounds was determined on the basis of the results obtained in Test Example 1.

male ICR mice [1] = assay: Anti-conflict activity (Vogel type conflict test); assay type: in vivo, mouse (ICR); conditions: for number of water-drinking: 10 minutes
Protocol: The method is described below.
Male ICR mice (6 weeks old) were deprived of water for one day before the test. The mice were then individually placed in the test box, and given water ad libitum for 10 minutes. Thereafter, they were placed back in their home cages, given water ad libitum overnight, and again deprived of water for two days. The mice thus treated were used for the measurement.
ABU, the test compound, was suspended in physiological saline containing 0.5% CMC, and the suspension was administered intraperitoneally to the above mice. .On the other hand, as a positive control compound, DZP was administered in the same manner. Fifteen minutes after the administration,the mice were placed in the test box, and allowed to freely drink one count of water (one drop: approximately 40 ul ). Thereafter, a 50 V electric foot shock was given from the grid floor to the mice every time they drunk one count of water. Under such conditions, the number of water-drinking was counted over a period of 10 minutes. The number of water-drinking performed by a group of mice to which the test compound was administered was compared with that of water-drinking performed by a group of mice to which a vehicle (physiological saline containing 0.5% CMC and no test compound) was administered.
The significant difference was ascertained by the Mann-Whitney's U-test.

in vivo = conditions: mouse, in vivo, po
Protocol: (§1) The muscle relaxant activities of the test compounds, 1-amino-5-bromouracil(ABU), 1-amino--5-chlorouracil (ACU) and diazepam (DZP), were determined in accordance with the method of L. L. Coughenour et al. [see Pharmacol. Biochem. & Behav., 6, 351-353 (1977)].
(§2) Male ICR mice were placed on a 13 cm×13 cm No. 4 wire screen, and the screen was then rotated by 180 degrees. Those mice which were able to return to the screen within one minute were referred to "successful" mice. The suspension of each test compound prepared in the same manner as in Test Example 1 was administered orally to the mice. The mice were then subjected to the above test. The dose of the test compound at which 50% of the mice successfully returned to the screen was determined as ED50 (A).
(§3) Furthermore, the validity of each of the test compounds as an anxiolytic drug was expressed as A/B value.

male ICR mice [2] = assay: Muscle relaxant activity (rotated wire screen test); conditions: muscle relaxant ED50 / minimum effective dose for anti-conflict activity
Protocol: as §1, §2, §3

ICR mice = assay: Acute toxicity (intraperitoneal administration); assay type: in vivo, mouse (ICR); conditions: one week
Protocol: 1-Amino-5-bromouracil (ABU) was suspended in physiological saline containing 0.5% carboxymethyl cellulose (CMC). ABU was administered intraperitoneally to 8 ICR mice in a dose of 500 mg/kg, and their lethality was observed over a period of one week.
Further, 1-amino-5-chlorouracil (ACU) was administered intraperitoneally to 10 male ICR mice in a dose of 357 mg/kg, and their lethality was observed over a period of one week.

[3] = Acute toxicity (oral administration); conditions: mouse, in vivo, male ICR mice, Litchfield-Wilcoxon method
Protocol: The acute toxicity (LD50 value) per oral administration was determined by the following method.
The test compound (1-amino-5-bromouracil (ABU) or 1-amino-5-chlorouracil (ACU) was suspended in distilled water containing 0.5% carboxymethyl cellulose (CMC). ABU or ACU was administered orally to male ICR mice (1 group: 10 mice) in a dose of 1000-2800 mg/kg or 500-1400 mg/kg, and the LD50 values were determined according to the Litchfield-Wilcoxon method. The results are shown in Table 2.

[4] = cited from earlier work

| Compound | number of lever pressing during the alarm periods (male Wistar rats; 10 mg/kg oral) | number of lever pressing during the alarm periods (male Wistar rats; 30 mg/kg oral) | number of lever pressing during the safety periods (male Wistar rats; 30 mg/kg oral) | number of lever pressing during the safety periods (male Wistar rats; 50 mg/kg oral) | minimal effective dose (male Wistar rats) | ED50 (in vivo) | Validity [A/B] (male ICR mice [2]) | LD50 [3] | number of lever pressing during the alarm periods (male Wistar rats; 20 mg/kg oral) | number of lever pressing during the safety periods (male Wistar rats; 20 mg/kg oral) | other results |
| --- | --- | --- | --- | --- | --- | --- | --- | --- | --- | --- | --- |
| Nn1cc(Br)c(=O)[nH]c1=O [ABU, 1-amino-5-bromouracil] | significantly increased | significantly increased | did not significantly change | did not significantly change | 10 mg/kg | 74.1 mg/kg | 7.4 | 1920 mg/kg |  |  | number of lever pressing during the safety periods (male Wistar rats; 10 mg/kg oral): did not significantly change; number of lever pressing during the alarm periods (male Wistar rats; 50 mg/kg oral): significantly increased; sensitivity to an electric shock (male ICR mice [1]; 20 mg/kg i.p.): no decrease in the sensitivity to an electric shock was noted; number of water-drinking (male ICR mice [1]; ABU 5, 10, 20 and 50 mg/kg i.p., significant only at 20 mg/kg): a significant increase in the number of water-drinking was noted only at the dose of 20 mg/kg; lethality (ICR mice; 500 mg/kg i.p., 8 ICR mice): no death was observed |
| Nn1cc(Cl)c(=O)[nH]c1=O [ACU, 1-Amino--5--chlorouracil] |  | significantly increased | did not significantly change |  | 20 mg/kg | 46 mg/kg | 2.3 | 971 mg/kg | significantly increased | did not significantly change | lethality (ICR mice; 357 mg/kg i.p., 10 male ICR mice): no death was observed |
| Nn1cc(F)c(=O)[nH]c1=O [AFU, 1-amino-5-fluorouracil] |  |  |  |  |  |  |  |  | significantly increased | did not significantly change |  |
| CN1C(=O)CN=C(c2ccccc2)c2cc(Cl)ccc21 [DZP, diazepam, reference compound] | significantly increased |  |  | significantly decreased | 5 mg/kg | 8.8 mg/kg | 1.8 |  | significantly increased | significantly decreased | number of lever pressing during the alarm periods (male Wistar rats; 5 mg/kg oral): significantly increased; behaviors of the mice when receiving an electric shock (male ICR mice [1]; 2 mg/kg i.p.): lack of both vocalization and escape behavior; sensitivity of the mice to an electric shock (male ICR mice [1]; 2 mg/kg i.p.): decreased; number of water-drinking (male ICR mice [1]; 2 mg/kg i.p.): significantly increased |
| CCC(C)n1c(=O)[nH]c(C)c(Br)c1=O (stereo not shown) [bromacil] |  |  |  |  |  |  |  |  |  |  | minimum effective dose for single administration ([4]; oral, single administration): 100 mg/kg; anxiolytic activity ([4]; orally administered): low anxiolytic activity |
